How the values were obtained:
human EGF-R = target: T1, human EGF-R (Homo sapiens, UniProt P00533); test: Inhibition of EGF-dependent proliferation of F/L-HERc cells (Cell Titer 96 AQueous assay); assay type: cell-based; conditions: F/L-HERc cells (murine IL-3-dependent line expressing human EGF-R), stimulated with EGF 20 ng/ml, 48 hours at 37° C.
T1 construct: expressed in transfected cells; host or cells: F/L-HERc cells, derived from the murine IL-3-dependent line FDC-P1 ('FDC-PI' [sic]); retroviral vector LXSN, packaging line GP+E86
Excerpt: A cell line of murine origin dependent on interleukin-3 (IL-3) which was genetically modified to express functional human EGF-R was used here. The proliferation of these cells known as F/L-HERc can therefore be stimulated either by murine IL-3 or by EGF (cf. von Rüden, T. et al. in EMBO J. 7, 2749-2756 (1988) and Pierce, J. H. et al. in Science 239. 628-631 (1988)).
The starting material used for the F/L-HERc cells was the cell line FDC-PI, the production of which has been described by Dexter, T. M. et al, in J. Exp. Med. 152, 1036-1047 (1980). alternatively, however, other growth-factor-dependent cells may also be used (cf. for example Pierce, J. H. et al. in Science 239, 628-631 (1988), Shibuya, H. et al. in Cell 70, 57-67 (1992) and alexander, W. S. et al. in EMBO J. 10, 3683-3691 (1991)). For expressing the human EGF-R cDNA (cf. Ullrich, A. et al. in Nature 309, 418-425 (1984)) recombinant retroviruses were used as described by von Rüden, T. et al., EMBO J. 7, 2749-2756 (1988), except that the retroviral vector LXSN (cf. Miller, A. D. et al. in BioTechniques 1, 980-990 (1989)) was used for the expression of the EGF-R cDNA and the line GP+E86 (cf, Markowitz, D, et al. in J. Virol. 62, 1120-1124 (1988)) was used as the packaging cell.
The test was performed as follows: • F/L-HERC cells were cultivated in RPMI/1640 medium (BioWhittaker), supplemented with 10% foetal calf serum (FCS, Boehringer Mannheim). 2 mM glutamine (BioWhittaker), standard antibiotics and 20 ng/ml of human EGF (Promega), at 37° C. and 5% CO2. In order to investigate the inhibitory activity of the compounds according to the invention, 1.5×10^4 cells per well were cultivated in triplicate in 96-well plates in the above medium ([…]), the cell proliferation being stimulated with either EGF (20 ng/ml) or murine IL-3. The IL-3 used was obtained from culture supernatants of the cell line X63/0 mIL-3 (cf. Karasuyama, 4. et al. in Eur. J. Immunol. 18, 97-104 (19881). The compounds according to the invention were dissolved in 100% dimethylsulphoxide (DMSO) and added to the cultures in various dilutions, the maximum DMSO concentration being 1%. The cultures were incubated for 48 hours at 37° C.
In order to determine the inhibitory activity of the compounds according to the invention the relative cell number was measured in O.D. units using the Cell Titer 96™ AQueous Non-Radioactive Cell Proliferation Assay (Promega). The relative cell number was calculated as a percentage of the control (F/LHERc cells without inhibitor) and the concentration of active substance which inhibits the proliferation of the cells by 50% (IC50) was derived therefrom.

T1 sequence (P00533 25-1210): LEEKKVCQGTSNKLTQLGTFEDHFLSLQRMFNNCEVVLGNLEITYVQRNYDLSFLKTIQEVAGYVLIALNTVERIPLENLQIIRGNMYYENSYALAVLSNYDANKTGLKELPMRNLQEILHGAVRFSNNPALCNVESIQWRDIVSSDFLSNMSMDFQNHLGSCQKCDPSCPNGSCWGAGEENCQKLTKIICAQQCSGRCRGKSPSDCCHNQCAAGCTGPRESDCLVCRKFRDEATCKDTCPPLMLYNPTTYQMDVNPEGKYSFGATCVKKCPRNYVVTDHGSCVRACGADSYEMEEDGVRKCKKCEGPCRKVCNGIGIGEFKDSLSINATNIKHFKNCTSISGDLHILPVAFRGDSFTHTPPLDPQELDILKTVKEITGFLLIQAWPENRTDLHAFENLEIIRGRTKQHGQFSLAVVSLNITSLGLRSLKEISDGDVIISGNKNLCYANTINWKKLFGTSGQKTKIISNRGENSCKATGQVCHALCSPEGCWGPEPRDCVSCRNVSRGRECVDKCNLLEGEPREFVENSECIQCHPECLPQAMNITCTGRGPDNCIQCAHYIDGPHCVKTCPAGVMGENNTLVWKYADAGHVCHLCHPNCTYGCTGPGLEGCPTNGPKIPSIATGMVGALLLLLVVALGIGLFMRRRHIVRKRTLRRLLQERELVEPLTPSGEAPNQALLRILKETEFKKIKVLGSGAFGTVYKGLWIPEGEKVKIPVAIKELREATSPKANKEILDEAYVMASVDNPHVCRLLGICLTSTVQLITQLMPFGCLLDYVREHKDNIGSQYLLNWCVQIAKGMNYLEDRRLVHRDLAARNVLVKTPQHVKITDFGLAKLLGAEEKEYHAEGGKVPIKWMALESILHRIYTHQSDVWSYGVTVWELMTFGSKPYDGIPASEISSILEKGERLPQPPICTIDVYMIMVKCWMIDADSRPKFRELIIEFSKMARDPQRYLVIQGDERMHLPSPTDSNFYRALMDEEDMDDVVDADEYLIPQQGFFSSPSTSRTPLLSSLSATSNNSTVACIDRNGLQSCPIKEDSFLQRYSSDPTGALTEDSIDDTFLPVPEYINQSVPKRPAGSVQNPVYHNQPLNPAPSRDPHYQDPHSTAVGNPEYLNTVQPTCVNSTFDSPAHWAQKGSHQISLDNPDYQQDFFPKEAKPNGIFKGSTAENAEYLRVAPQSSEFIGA

Compound: C=CC(=O)Nc1cc2c(Nc3cccc(Br)c3)ncnc2cc1OCCCN1CCN(CC(=O)OCC)CC1 [Example 1, 4-[(3-Bromophenyl)amino]-7-(3-{4-[(ethoxycarbonyl)methyl]-piperazin-1-yl)propyloxy)-6-[(vinylcarbonyl)amino]-quinazoline]
- IC50 (human EGF-R): 2.6 nM
- melting point: 80 to 85 °C

Compound: CCOC(=O)CN(C)CC=CC(=O)Nc1ccc2ncnc(Nc3cccc(Br)c3)c2c1 [Example 2, 4-[(3-Bromophenyl)amino]-6-[(4-{N-[(ethoxycarbonyl)methyl]-N-methylamino}-1-oxo-2-buten-1-yl)-amino]-quinazoline]
- IC50 (human EGF-R): 5.2 nM
- melting point: 182 to 183 °C

Compound: CCOC(=O)CN(CC=CC(=O)Nc1cc2c(Nc3ccc(F)c(Cl)c3)ncnc2cc1OCC1CC1)CCOC(C)=O [Example 11, 4-[(3-chloro-4-fluorophenyl)amino]-6-[(4-(N-[(ethoxycarbonyl)-methyl]-N-[2-(methylcarbonyloxy)ethyl]amino]-1-oxo-2-buten-1-yl)amino]-7-cyclopropylmethoxy-quinazoline]
- IC50 (human EGF-R): 74 nM
- melting point: 90 to 92 °C
